Non-standard residues stand in square brackets, D forms with d. Residues, ends and D or L forms follow the SMILES beside them. *: point of attachment. Nva = CCC[C@H](N)C(=O)O; Cbz = O=C(OCc1ccccc1)*
Tests used:
[1] = biological target: native T. cruzi proteasome (caspase-like activity, β1) (Trypanosoma cruzi, UniProt V5BHX1); test: Caspase-like activity assay (Proteasome-Glo), native T. cruzi proteasome; format: biochemical; details: mean ± SD, N = 3; for IC50: read-out: pIC50, Caspase Assay, Native (converted)
Protocol: (§1) Chymotrypsin-, trypsin-, and caspase-like activity assays were performed using a commercially available Proteasome-Glo 3-substrate system assay kit (catalog number G8532) (Promega Corporation) according to the manufacturers protocols and as previously described ([24]).
(§2) Prior to running assays, Proteasome-Glo buffer was used to reconstitute the luciferin detection reagent (containing a recombinant thermostable luciferase enzyme). The resuspended luciferin detection reagent was then mixed with Proteasome-Glo chymotrypsin-, trypsin- or caspase-like substrates (either 40 μM suc-Leu-Leu-Val-Tyr-aminoluciferin, 30 μM Z-Leu-Arg-Arg-aminoluciferin (Z is benzyloxycarbonyl) or 40 μM Z-Nle-Pro-Nle-Asp-aminoluciferin respectively (these concentrations represent 2x final assay concentrations)). These substrate mixtures were allowed to incubate at room temperature for 60 min prior to use to allow the removal of any contaminating free aminoluciferin.
(§3) When proteasome inhibitors were to be screened in the chymotrypsin, trypsin, and caspase assays, test compounds were dispensed into assay wells using an ECHO 550 acoustic dispenser (Labcyte) (final DMSO concentration 1%). Compounds were tested in either a 10-point concentration series (30 μM top final assay concentration, 1 in 3 dilution series) or a 12-point concentration series (30 μM top final assay concentration, 1 in 2.5 dilution series).
(§4) Proteasome assays were then performed as described above using Promega Proteasome-Glo 3-substrate system assay kit. […] Diluted proteasome (4 μl) was added to assay plates using an electronic multichannel pipette (Integra Biosciences Ltd) and the proteasome incubated with compound for 60 min at room temperature.
(§5) Following the 60 min incubation of proteasome and compounds, assays were initiated with the addition of 4 μl of a substrate mix (containing substrate and the luciferin detection reagent) using an electronic multichannel pipette. Final assay concentrations of substrates used were either 20 μM Suc-Leu-Leu-Val-Tyr-aminoluciferin, 15 μM Z-Leu-Arg-Arg-aminoluciferin, or 20 μM Z-Nle-Pro-Nle-Asp-aminoluciferin for chymotrypsin-, trypsin-, or caspase-like activity, respectively. Following a further 60 min assay incubation, luminescence was read using an EnVision 2102 Multilabel Reader (PerkinElmer, Inc) with 0.2 s per well reading time.
(§6) All data processing was performed using Microsoft Excel for Microsoft 365 software.
(§7) Nonlinear dose-response curve fitting was carried out using the Microsoft Excel add-in, XLfit (IDBS). Percentage inhibition data were either fitted to a standard 4-parameter logistic fit model (XLfit model 205; Equation 2) or a biphasic model (either XLfit model 300; Equation 3 or a custom biphasic model; Equation 4 (used in cases where the top and/or bottom parameters deviated from 100%/0% inhibition)).(2) y=A+(B−A)/1+(C/x)^D Where A = % inhibition at bottom, B = % inhibition at top, C = IC50, D = slope, x = inhibitor concentration and y = % inhibition.(3) y=(A/(1+10^(C−log(x))∗B))+((100−A)/(1+10^(D−log(x))∗B)) With A = % inhibition at midplateau, B = slope, C = log(IC50^A), D = log(IC50^B)).
(§8) All IC50 data generated were converted to pIC50 using Equation 5.

[2] = biological target: recombinant WT T. cruzi proteasome (chymotrypsin-like activity, β5) (Trypanosoma cruzi, UniProt V5BU39+V5C017); test: biochemical; format: biochemical; details: for maximum % inhibition plateau, Chymotrypsin Assay, Wild-type: mean ± SD, N = 3 (N = 2 for DDD02091966), (a) mid-point plateau from biphasic curve fits
Protocol: as §1, §2
(§9) Proteasome assays were carried out using 384-well, white, low-volume plates (catalog number 784904) (Greiner Bio-One) at room temperature (∼23 °C) in 8 μl reaction volumes. When activity checks were to be run in the presence or absence of a fixed concentration of proteasome inhibitor, 80 nL of the inhibitor (at a concentration 100x the required final assay concentration), or 80 nL dimethylsulfoxide (DMSO), were dispensed into assay plates using an Echo 550 acoustic dispenser (Labcyte).
(§10) A 1 in 2 dilution series of the various T. cruzi proteasome samples (native, recombinant WT, β4^R mutant, and Δβ1Δβ2 mutant) were produced in assay buffer (50 mM Tris–HCl, pH 7.5, 10 mM sucrose, 5 mM MgCl2, 1 mM DTT, 2 mM ATP, 150 mM NaCl, 1 mM EDTA, and 0.05 mg/ml bovine serum albumin). Subsequently, 4 μl of the various concentrations of diluted proteasome were added to assay plates using an electronic multichannel pipette (Integra Biosciences Ltd). When kinetic read activity checks were performed (Fig. 2), proteasome final assay concentrations used were 115 μg/ml, 115 μg/ml, and 230 μg/ml native proteasome (in the chymotrypsin, trypsin, and caspase assays, respectively), and 4.1 μg/ml, 3.4 μg/ml, or 1.4 μg/ml recombinant WT proteasome (in the chymotrypsin, trypsin, and caspase assays, respectively). When activity checks were to be run in the presence or absence of a proteasome inhibitor plates containing inhibitor or DMSO control were incubated with the relevant proteasome sample for 60 min at room temperature (this step was not included in activity check experiments where compounds were not used).
(§11) Following the 60 min incubation of proteasome and compound (if required), assays were initiated with the addition of 4 μl of substrate mix (containing substrate and the luciferin detection reagent) using an electronic multichannel pipette. Final assay concentrations of substrates used were either 20 μM Suc-Leu-Leu-Val-Tyr-aminoluciferin, 15 μM Z-Leu-Arg-Arg-aminoluciferin, or 20 μM Z-Nle-Pro-Nle-Asp-aminoluciferin for chymotrypsin-, trypsin- or caspase-like activity respectively.
(§12) Luminescence was read either kinetically or as an endpoint read using an EnVision 2102 Multilabel Reader (PerkinElmer, Inc) with 0.2 s per well reading time. When kinetic assays were run, luminescence was read every 5 min for 90 min. Endpoint assays were run for 60 min before luminescence was read. All data processing and linear fit analyses were performed using Microsoft Excel for Microsoft 365 software (Redmond, Washington; https://www.microsoft.com/).
as §3

[3] = biological target: recombinant β4^R mutant T. cruzi proteasome (trypsin-like activity) (Trypanosoma cruzi, UniProt V5BCU3); format: biochemical; details: mean ± SD, N = 3
Protocol: (§13) Point mutations were created in individual subunits using overlapping PCR from the original templates using Polh and Tn7L primers outside the genes and suitable internal primers to introduce selected mutations. For Δβ1Δβ2, β1 Thr 55, and β2 Thr 67 were both mutated to Ala, the β4^R mutant was produced by mutating Phe 24 and Ile 29 to Leu and Met respectively in β4 subunit.
as §1, §2, §9, §10, §11, §12

[4] = biological target: recombinant β4^R mutant T. cruzi proteasome (caspase-like activity) (Trypanosoma cruzi, UniProt V5BHX1); test: Caspase-like activity assay (Proteasome-Glo), recombinant β4^R mutant T. cruzi proteasome; format: biochemical
Protocol: as §13, §1, §2, §9, §10, §11, §12

[5] = tested on: intracellular T. cruzi Silvio X10/7 A1 amastigotes; test: Intracellular T. cruzi assay; format: cell-based; details: Trypanosoma cruzi; 96 h compound treatment, Vero host cells; given as [mean pEC50, SD, N]; read-out: Mean pEC50 against intracellular T. cruzi parasites (converted)
Protocol: Potency against intracellular T. cruzi Silvio X10/7 A1 amastigotes was determined as described previously ([53]), with a sole modification that the compound treatment duration was 96 h instead of 72 h. Vero host cells were obtained from The European Collection of Authenticated Cell Cultures (cat. number 84113001) and tested for mycoplasma (negative). T. cruzi Silvio X10/7 A1 was obtained from Prof. Alan Fairlamb, and discrete typing unit confirmed by genotyping ([53]).

[6] = biological target: recombinant WT T. cruzi proteasome (caspase-like activity, β1) (Trypanosoma cruzi, UniProt V5BHX1); test: Caspase-like activity assay (Proteasome-Glo), recombinant wild-type T. cruzi proteasome; format: biochemical
Protocol: as §1, §2, §3, §4, §5, §6, §7, §8

[7] = biological target: native T. cruzi proteasome (chymotrypsin-like activity, β5) (Trypanosoma cruzi, UniProt V5BU39+V5C017); test: Chymotrypsin-like activity assay (Proteasome-Glo), native T. cruzi proteasome; format: biochemical
Protocol: as §1, §2, §3, §4, §5, §6, §7, §8

[8] = biological target: native T. cruzi proteasome (trypsin-like activity, β2) (Trypanosoma cruzi, UniProt V5BCU3); test: Trypsin-like activity assay (Proteasome-Glo), native T. cruzi proteasome; format: biochemical; details: mean ± SD, N = 3; for IC50: read-out: pIC50, Trypsin Assay, Native (converted)
Protocol: as §1, §2, §3, §4, §5, §6, §7, §8

[9] = biological target: recombinant β4^R mutant T. cruzi proteasome (chymotrypsin-like activity) (Trypanosoma cruzi, UniProt V5BU39+V5C017, F24L/I29M); test: biochemical; format: biochemical
Protocol: as §13, §1, §2, §9, §10, §11, §12

[10] = biological target: recombinant Δβ1Δβ2 mutant T. cruzi proteasome (chymotrypsin-like activity) (Trypanosoma cruzi, UniProt V5BU39+V5C017); test: biochemical; format: biochemical
Protocol: as §13, §1, §2, §9, §10, §11, §12

[11] = biological target: recombinant WT T. cruzi proteasome (trypsin-like activity, β2) (Trypanosoma cruzi, UniProt V5BCU3); test: biochemical; format: biochemical; details: mean ± SD, N = 3; for IC50: read-out: pIC50, Trypsin Assay, Wild-type (converted)
Protocol: as §1, §2, §3, §4, §5, §6, §7, §8

## CNC(=O)c1cc(NC(=O)c2ccc(=O)n(Cc3ccc(OC)cc3)n2)ccc1F [DDD02097487]
[1]
  IC50: > 30200 nM
[2]
  IC50: 178 nM
  maximum % inhibition plateau, Chymotrypsin Assay, Wild-type: 48.2 ± 3.6%
[3]
  pIC50, Trypsin Assay, β4^R mutant: <4.52
[4]
  IC50: > 30200 nM
[5]
  EC50: 794 nM
[6]
  IC50: > 30200 nM
[7]
  IC50: 120 nM
[8]
  IC50: > 30200 nM
[9]
  IC50: > 30200 nM
[10]
  IC50: 155 nM
[10]; top of dose-response curve
  extent of inhibition in chymotrypsin dose-response curve, Δβ1Δβ2 mutant: unable to fully inhibit
[11]
  IC50: > 30200 nM

## O=C(Nc1ccc(F)c(-c2cn3nc(N4CCOCC4)cnc3n2)c1)N1CCCC1 [DDD01012247]
[1]
  IC50: > 30200 nM
[2]
  IC50: 16.2 nM
  maximum % inhibition plateau, Chymotrypsin Assay, Wild-type: 68.9 ± 3.5%
[3]
  pIC50, Trypsin Assay, β4^R mutant: <4.52
[4]
  IC50: > 30200 nM
[5]
  EC50: 126 nM
[6]
  IC50: > 30200 nM
[7]
  IC50: 12 nM
[8]
  IC50: > 30200 nM
[9]
  IC50: 6920 nM
[10]
  IC50: 19.5 nM
[11]
  IC50: > 30200 nM

## CCC[C@@H](C=O)NC(=O)[C@H](CC(C)C)NC(=O)[C@H](CC(C)C)NC(=O)OCc1ccccc1 [MG115, reference compound] (Cbz-Leu-Leu-[Nva]-aldehyde)
[1]
  pIC50, Caspase Assay, Native: 4.79 ± 0.11
[2]
  pIC50, Chymotrypsin Assay, Wild-type: 6.07 ± 0.13
  maximum % inhibition plateau, Chymotrypsin Assay, Wild-type: 93.3 ± 2.9%
[3]
  pIC50, Trypsin Assay, β4^R mutant: 5.24 ± 0.05
[4]; mean ± SD, N = 3
  pIC50, Caspase Assay, β4^R mutant: 5.03 ± 0.04
[6]; mean ± SD, N = 3
  pIC50, Caspase Assay, Wild-type: 4.77 ± 0.07
[7]; mean ± SD, N = 3, biphasic curves (a): pIC50 of most potent curve, 60 min preincubation
  pIC50, Chymotrypsin Assay, Native: 6.04 ± 0.08
[8]
  pIC50, Trypsin Assay, Native: 4.89 ± 0.16
[9]; mean ± SD, N = 3, biphasic curves (a): pIC50 of most potent curve
  pIC50, Chymotrypsin Assay, β4^R mutant: 6.24 ± 0.05
[10]; mean ± SD, N = 3
  maximum % inhibition plateau, Chymotrypsin Assay, Δβ1Δβ2 mutant: 99.4 ± 1.0%
  pIC50, Chymotrypsin Assay, Δβ1Δβ2 mutant: 6.38 ± 0.16
[11]
  pIC50, Trypsin Assay, Wild-type: 4.97 ± 0.09

## CC(C)C[C@H](NC(=O)[C@H](Cc1ccccc1)NC(=O)c1cnccn1)B(O)O [Bortezomib]
[1]
  IC50: 72.4 nM
[4]
  IC50: 93.3 nM
[6]
  IC50: 72.4 nM

From PMC11748689, “Pharmacological and structural understanding of the Trypanosoma cruzi proteasome provides key insights for developing site-specific inhibitors” (The Journal of Biological Chemistry, 2024)
